Experimental data from patent US20250256096A1 (priority 2022, published 2025).
“And” between values parts separate entries of the source, which are not always exact repeats. Equal values may be shown once. Read-outs that look alike come from different tables or passages of the source.

Test system: cervical vagus nerve
Type: in vivo, Adult male Lewis rats
Settings: for vagal nerve activity as detected by spike count analysis of electroneurograms: application directly to the cervical vagus nerve; for vagal nerve activity as detected by spike count analysis of electroneurograms / nerve firing of the main cervical vagus nerve: result in words; for nerve firing of the main cervical vagus nerve: intradermal application to trigeminal dermatomes on the forehead
[1] = intradermal application on forehead near trigeminal nerve endings, high (100 nM) concentration, mean +/- SEM

Compound	vagal nerve activity as detected by spike count analysis of electroneurograms	nerve firing of the main cervical vagus nerve	cervical vagus nerve average spike count [1]	cervical vagus nerve average spike count (intradermal application on forehead near trigeminal nerve endings, low (10 nM) concentration, mean +/- SEM)	effect on spike count (low (10 nM) or high (100 nM) concentrations directly on the cervical vagus nerve, data not shown)	cervical vagus nerve average spike count (high (100 nM) concentration applied directly on the cervical vagus nerve, mean +/- SEM)	cervical vagus nerve average spike count (low (10 nM) concentration applied directly on the cervical vagus nerve, mean +/- SEM, POST 60-s segment)	cervical vagus nerve average spike count (rat, in vivo)
WS-12	increased	activated	–	–	–	–	–	–
CC(C)C[C@H](NC(=O)c1cc2ccccc2s1)C(=O)N1CCN(C(=O)[C@H](CO)NS(=O)(=O)c2ccc(Cl)cc2Cl)CC1 [GSK1016790A]	increased	activated	13.8+/−1.0 spikes/second	7.0+/−0.5 spikes/second	no effect	–	–	–
COc1cc(CNC(=O)CCCC/C=C/C(C)C)ccc1O [Capsaicin, capsaicin]	increased	activated	13.5+/−0.5 spikes/second	–	–	14.5+/−0.7 spikes/second	7.6+/−0.7 spikes/second	–
capsaicin	–	–	–	–	–	–	–	11.2+/−0.6 spikes/second and 17.7+/−0.8 spikes/second and 9.6+/−0.5 spikes/second
